The subject of assay [1] is NQO1 specific enzyme activity in BEAS-2B cells. Nature of the assay: BEAS-2B NQO1 MTT Assay. Particulars: Homo sapiens. In kind it is cell-based. In short, it runs like this: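 BEAS-2B cells plated overnight, treated with compound for 48 h at 37° C, then lysed; NQO1 activity measured kinetically by MTT cocktail at 570 nm over 30 min, with lysate aliquot for Cell Titer Glo. pEC50 from 3-parameter fit of ΔOD/min versus log concentration.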

For assay [2], the target named is T1, Keap1 (321-609) Kelch domain / TAMRA-labeled NRF2 peptide (ETGE motif) (Homo sapiens, UniProt Q14145).
T1 construct: the Kelch domain (321-609) of Keap1 is used
T1 sequence (Q14145 321-609): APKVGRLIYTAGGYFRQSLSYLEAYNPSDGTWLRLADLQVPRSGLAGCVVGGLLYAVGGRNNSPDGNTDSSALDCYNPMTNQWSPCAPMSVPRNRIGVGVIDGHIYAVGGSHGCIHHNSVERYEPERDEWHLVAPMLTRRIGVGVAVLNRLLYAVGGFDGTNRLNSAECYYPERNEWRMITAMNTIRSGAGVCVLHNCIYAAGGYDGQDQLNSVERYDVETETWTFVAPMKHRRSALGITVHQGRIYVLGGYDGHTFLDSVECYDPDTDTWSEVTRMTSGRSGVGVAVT
Nature of the assay: NRF2-Keap1 FP Assay. As to conditions: Keap1 (321-609) 20 nM, Tamra labeled peptide 8 nM. The format is binding. The source says: One model for the NRF2-Keap1 interaction is through two binding sites in the Neh2 domain on NRF2. The two sites are referred to as the DLG binding motif (latch domain, uM affinity) and the ETGE binding motif (hinge domain, nM affinity). The Keap1 protein consists of an N-terminal region (NTR), a broad complex, tramtrack, and brick a' brac domain (BTB), an intervening region (IVR), a double glycine repeat domain (DGR or Kelch), and a C-terminal region. The DLG and ETGE motifs of NRF2's Neh2 domain bind to the Kelch domain of Keap1 at different affinities. In the Keap1 Kelch fluorescence polarization (FP) assay, a TAMRA-labeled 16mer peptide (AFFAQLQLDEETGEFL) containing the ETGE motif of NRF2 and the Kelch domain (321-609) of Keap1 is used. The assay determines if a compound interferes with the binding between Keap1 […] and the TAMRA-labeled peptide. Binding of TAMRA-labeled NRF2 peptide to Keap1 (321-609) results in a high FP signal. If a compound interferes with the binding between the peptide and the protein, it will cause the assay signal to decrease. Thus, assay signal is inversely proportional to binding inhibition.
100 nl of 100× compound dose response curves (serial 3-fold dilutions) in DMSO were stamped using an Echo liquid handling system (Labcyte) into 384-well low volume black assay plates (Greiner, #784076), with DMSO in columns 6 and 18. The top concentration of compound was located in columns 1 and 13. Keap1 (321-609) was diluted to 40 nM (2×) in 1× assay buffer (50 mM Tris, pH 8.0, 100 mM NaCl, 5 mM MgCl2, 1 mM DTT, 2 mM CHAPS, and 0.005% BSA) and 5 ul was added using a Multidrop Combi (Thermo Electron Corporation) equipped with a metal tip dispenser to all wells of the compound plate, except column 18. Column 18 received only 5 ul of assay buffer. Immediately, 5 uL of 16 nM (2×) of Tamra labeled peptide (AFFAQLQLDEETGEFL, 21st Century Biochemicals) was added to all wells of the plate. The plates were spun at 500 rpm for 1 min, incubated for 1 hr at room temperature, and read on an Analyst GT (Molecular Devices) equipped with excitation (530/25 nm) and emission (580/10 nm) filters designed for Tamra probes. A 561 nm dichroic mirror was also used in the Analyst. The final assay concentrations of Keap1l (321-609) and Tamra labeled peptide were 20 nM and 8 nM, respectively. Fluorescence measurements, represented as mP, were used in the transformation of the data. Compound activity was calculated based on percent inhibition, normalized against controls in the assay (Control 1 contains the Tamra peptide and Keap1 (321-609) together (0% response) and control 2 contains the Tamra peptide alone (100% response)). Data analysis was handled using the software package Abase XE (Surrey, United Kingdom. The % inhibition values were calculated by the equation:
100−(100*((compound response−average control 2)/(average control 1−average control2))).
For calculation of pIC50s, Abase XE used a four parameter equation.
IC50s<1 nM (+++++), IC50s 1 nM-10 nM (++++), IC50s 10-100 nM (+++), IC50s 100 nM-1 μM (++), IC50s 1-10 μM (+), IC50s>10 μM (−), or were not determined (ND).

The mark [3] stands for this setting: NQO1 specific activity induction, BEAS-2B cells, 48 hours, read-out: EC50.

pEC50: −log10 of the molar value. Counter-ions that a name gives are not always drawn. Like-named read-outs stand apart in the source and are kept apart here.

Consider `C[C@H]1Cc2cc(C(F)(F)F)ccc2S(=O)(=O)N(Cc2cccc(-n3ncc(C(=O)O)c3[C@@H]3C[C@H]3c3cnn(C)c3)c2)C1` [Example 30, 1-(3-(((S)-4-Methyl-1,1-dioxido-7-(trifluoromethyl)-4,5-dihydrobenzo[f][1,2]thiazepin-2(3H)-yl)methyl)phenyl)-5-(trans-2-(1-methyl-1H-pyrazol-4-yl)cyclopropyl)-1H-pyrazole-4-carboxylic acid], for which the pEC50 is 5.00 to 6.00 in assay [1] (setting [3]) and 7.00 to 8.00 in assay [2].

As for `CC[C@H]1Cc2ccccc2S(=O)(=O)N(Cc2cccc(-n3ncc(C(=O)O)c3[C@@H]3C[C@H]3c3cn(C)nn3)c2)C1` [Example 4], the negative logarithm of the EC50 (pEC50) in assay [1] (setting [3]) was 6.00 to 7.00; in assay [2], 8.00 to 9.00.

On to `COc1ccccc1S(=O)(=O)N(C)Cc1cccc(-n2ncc(C(=O)O)c2[C@@H]2C[C@H]2c2cn(C)nn2)c1` (racemic) [Example 47, 1-(3-((2-methoxy-N-methylphenylsulfonamido)methyl)phenyl)-5-((trans)-2-(1-methyl-1H-1,2,3-triazol-4-yl)cyclopropyl)-1H-pyrazole-4-carboxylic acid], for which the pEC50 in assay [1] (setting [3]) is 7.00 to 8.00; in assay [2] it was 6.00 to 7.00.

On to `CCOc1ccc(Br)cc1CN(C)Cc1cccc(-n2ncc(C(=O)O)c2[C@@H]2C[C@H]2c2cn(C)nn2)c1` (racemic) [Example 54, 1-(3-(((5-bromo-2-ethoxybenzyl)(methyl)amino)methyl)phenyl)-5-((trans)-2-(1-methyl-1H-1,2,3-triazol-4-yl)cyclopropyl)-1H-pyrazole-4-carboxylic acid trifluoroacetate], for which the pEC50 in assay [1] (setting [3]) and in assay [2] was 6.00 to 7.00 in each case.

As to `COc1ccccc1S(=O)(=O)N(C)C1CCc2ccc(-n3ncc(C(=O)O)c3[C@@H]3C[C@H]3c3cn(C)nn3)cc21` (stereo partly drawn) [Example 27, 1-(3-(2-methoxy-N-methylphenylsulfonamido)-2,3-dihydro-1H-inden-5-yl)-5-((1R,2R)-2-(1-methyl-1H-1,2,3-triazol-4-yl)cyclopropyl)-1H-pyrazole-4-carboxylic acid], the values for the negative logarithm of the EC50 (pEC50) in assay [1] (setting [3]) and in assay [2] were 6.00 to 7.00 and 5.00 to 6.00, respectively.

Consider `Cc1cc([C@@H]2C[C@H]2c2c(C(=O)O)cnn2-c2cccc(CN3C[C@@H](C)Cc4cc(C(F)(F)F)ccc4S3(=O)=O)c2)on1` (racemic) [Example 57, 1-(3-(((S)-4-Methyl-1,1-dioxido-7-(trifluoromethyl)-4,5-dihydrobenzo[f][1,2]thiazepin-2(3H)-yl)methyl)phenyl)-5-(trans-2-(3-methylisoxazol-5-yl)cyclopropyl)-1H-pyrazole-4-carboxylic acid], for which the negative logarithm of the EC50 (pEC50) in assay [1] (setting [3]) and in assay [2] was 6.00 to 7.00 each time.

Regarding `CCOc1ccccc1S(=O)(=O)N(C)Cc1cccc(-n2ncc(C(=O)O)c2[C@@H]2C[C@H]2c2cn(C)nn2)c1` (racemic) [Example 45, 1-(3-((2-ethoxy-N-methylphenylsulfonamido)methyl)phenyl)-5-((trans)-2-(1-methyl-1H-1,2,3-triazol-4-yl)cyclopropyl)-1H-pyrazole-4-carboxylic acid], the pEC50 is 5.00 to 6.00 in assay [1] (setting [3]) and 6.00 to 7.00 in assay [2].

`C[C@H]1Cc2ccc(C(F)(F)F)cc2S(=O)(=O)N(Cc2cccc(-n3ncc(C(=O)O)c3[C@@H]3C[C@H]3c3cn(C)nn3)c2)C1` (racemic) [Example 16, 1-(3-((4-methyl-1,1-dioxido-8-(trifluoromethyl)-4,5-dihydro-benzo[f][1,2]thiazepin-2(3H)-yl)methyl)phenyl)-5-((trans)-2-(1-methyl-1H-1,2,3-triazol-4-yl)cyclopropyl)-1H-pyrazole-4-carboxylic acid]: the pEC50 was 6.00 to 7.00 in assay [1] (setting [3]) and 8.00 to 9.00 in assay [2].

On to `CC[C@@H]1CN(Cc2cccc(-n3ncc(C(=O)O)c3[C@@H]3C[C@H]3c3cn(C)nn3)c2)Cc2ccccc2O1` (racemic) [Example 14], for which the pEC50 in assay [1] (BEAS-2B, 48 h) is 5.00 to 6.00; in assay [2], 6.00 to 7.00.

On to `Cn1cc([C@@H]2C[C@H]2c2c(C(=O)O)cnn2-c2cccc(Cn3ccnc3CN3CCCCC3)c2)nn1` (racemic) [Example 24], for which the pEC50 in assay [1] (setting [3]) is 5.00 to 6.00; in assay [2] it was 7.00 to 8.00.

On to `CN(Cc1cccc(-n2ncc(C(=O)O)c2[C@@H]2C[C@H]2c2cn(C)nn2)c1)S(=O)(=O)c1ccccc1OC(F)(F)F` (racemic) [Example 46, 5-((trans)-2-(1-methyl-1H-1,2,3-triazol-4-yl)cyclopropyl)-1-(3-((N-methyl-2-(trifluoromethoxy)phenylsulfonamido)methyl)phenyl)-1H-pyrazole-4-carboxylic acid], for which the pEC50 is 5.00 to 6.00 in assay [1] (setting [3]) and 6.00 to 7.00 in assay [2].

For the compound `CC(c1cccc(-n2ncc(C(=O)O)c2[C@@H]2C[C@H]2c2cn(C)nn2)c1)N1C[C@@H](C)Cc2ccc(C(F)(F)F)cc2S1(=O)=O` (single isomer, unassigned) [Example 6, 1-(3-((R or S)-1-((S)-4-Methyl-1,1-dioxido-8-(trifluoromethyl)-4,5-dihydrobenzo[f][1,2]thiazepin-2(3H)-yl)ethyl)phenyl)-5-((1R,2R)-2-(1-methyl-1H-1,2,3-triazol-4-yl)cyclopropyl)-1H-pyrazole-4-carboxylic acid], the pEC50 is 6.00 to 7.00 in assay [1] (setting [3]) and 8.00 to 9.00 in assay [2].

In the case of `CC[C@H]1Cc2ccc(Br)cc2S(=O)(=O)N(Cc2cccc(-n3ncc(C(=O)O)c3[C@@H]3C[C@H]3c3cn(C)nn3)c2)C1` [Example 22, 1-(3-(((S)-8-bromo-4-ethyl-1,1-dioxido-4,5-dihydrobenzo[f][1,2]thiazepin-2(3H)-yl)methyl)phenyl)-5-((1R,2R)-2-(1-methyl-1H-1,2,3-triazol-4-yl)cyclopropyl)-1H-pyrazole-4-carboxylic acid], the pEC50 in assay [1] (setting [3]) is 8.00 to 9.00; in assay [2] it was greater than 9.00.

With `C[C@H]1Cc2cc(C(F)(F)F)ccc2S(=O)(=O)N(Cc2cccc(-n3ncc(C(=O)O)c3[C@@H]3C[C@H]3c3cn(C)nn3)c2)C1` (racemic) [Example 19, 1-(3-((4-methyl-1,1-dioxido-7-(trifluoromethyl)-4,5-dihydro-benzo[f][1,2]thiazepin-2(3H)-yl)methyl)phenyl)-5-((trans)-2-(1-methyl-1H-1,2,3-triazol-4-yl)cyclopropyl)-1H-pyrazole-4-carboxylic acid], the pEC50 in assay [1] (setting [3]) was 5.00 to 6.00; in assay [2], 6.00 to 7.00.

As for `COc1ccccc1S(=O)(=O)NCc1cccc(-n2ncc(C(=O)O)c2[C@@H]2C[C@H]2c2cn(C)nn2)c1` (racemic) [Example 52, 1-(3-((2-methoxyphenylsulfonamido)methyl)phenyl)-5-((trans)-2-(1-methyl-1H-1,2,3-triazol-4-yl)cyclopropyl)-1H-pyrazole-4-carboxylic acid], the pEC50 in assay [1] (setting [3]) and in assay [2] was 6.00 to 7.00 in each case.

For the compound `CN(Cc1cccc(-n2ncc(C(=O)O)c2[C@@H]2C[C@H]2c2cn(C)nn2)c1)S(=O)(=O)c1cccc(Oc2ccccc2)c1` (racemic) [Example 35, 5-((trans)-2-(1-methyl-1H-1,2,3-triazol-4-yl)cyclo-propyl)-1-(3-((N-methyl-3-phenoxy-phenyl-sulfonamido)-methyl)phenyl)-1H-pyrazole-4-carboxylic acid], the pEC50 in assay [1] (setting [3]) was 5.00 to 6.00; in assay [2], 7.00 to 8.00.

With `Cn1cc([C@@H]2C[C@H]2c2c(C(=O)O)cnn2-c2cccc(CN3CC(C)(C)Oc4ccc(F)cc4S3(=O)=O)c2)nn1` (racemic) [Example 5], the pEC50 in assay [1] (setting [3]) is 5.00 to 6.00; in assay [2] it was 8.00 to 9.00.

With `CC[C@H]1Cc2ccccc2CN(Cc2cccc(-n3ncc(C(=O)O)c3[C@@H]3C[C@H]3c3cn(C)nn3)c2)C1` [Example 11], the pEC50 is 5.00 to 6.00 in assay [1] (setting [3]) and 7.00 to 8.00 in assay [2].

As a reminder, the pEC50 is −log10 of the EC50, conventionally taken in molar units.

These data come from patent US20200071310A1, “N-ARYL PYRAZOLES AS NRF2 REGULATORS” (GLAXOSMITHKLINE INTELLECTUAL PROPERTY DEVELOPMENT LIMITED, priority 2016, published 2020).
